Earlier results, collected in patent US20070142399A1, “Dual function drugs and uses thereof” (Psychiatric Genomics, Inc., priority 2003, published 2007).

Assays:
D1 receptor = D1 receptor (Homo sapiens, UniProt P21728)
D2 receptor = D2 receptor (Homo sapiens, UniProt P14416)
Chain of D2 receptor (P14416 whole entry): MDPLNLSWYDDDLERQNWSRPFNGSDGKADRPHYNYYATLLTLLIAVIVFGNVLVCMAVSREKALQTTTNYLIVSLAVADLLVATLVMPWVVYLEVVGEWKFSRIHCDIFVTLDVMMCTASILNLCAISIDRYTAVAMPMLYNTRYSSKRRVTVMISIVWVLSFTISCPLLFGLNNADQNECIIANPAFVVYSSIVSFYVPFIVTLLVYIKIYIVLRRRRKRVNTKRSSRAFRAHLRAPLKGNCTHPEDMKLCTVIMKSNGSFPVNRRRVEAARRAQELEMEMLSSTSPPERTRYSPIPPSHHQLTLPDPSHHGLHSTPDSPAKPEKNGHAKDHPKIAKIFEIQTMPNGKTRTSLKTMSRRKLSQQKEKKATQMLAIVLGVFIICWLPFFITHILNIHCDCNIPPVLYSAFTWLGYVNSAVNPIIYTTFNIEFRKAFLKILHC

Chain of D1 receptor (P21728 whole entry): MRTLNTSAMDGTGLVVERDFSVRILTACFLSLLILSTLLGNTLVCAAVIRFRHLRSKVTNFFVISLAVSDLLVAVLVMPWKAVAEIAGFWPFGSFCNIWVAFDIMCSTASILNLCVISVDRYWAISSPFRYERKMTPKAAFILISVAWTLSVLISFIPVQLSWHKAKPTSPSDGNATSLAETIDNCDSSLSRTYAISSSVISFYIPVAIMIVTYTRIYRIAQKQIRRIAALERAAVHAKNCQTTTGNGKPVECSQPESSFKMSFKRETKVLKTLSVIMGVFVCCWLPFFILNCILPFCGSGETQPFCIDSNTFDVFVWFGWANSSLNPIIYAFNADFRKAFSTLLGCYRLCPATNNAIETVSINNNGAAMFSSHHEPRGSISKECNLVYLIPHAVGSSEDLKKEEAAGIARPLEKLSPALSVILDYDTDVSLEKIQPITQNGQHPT

potency at the D1 receptor as an agonist (D1 receptor): not potent enough
D2 agonist activity (D2 receptor): residual partial D2 agonist activity
SMILES: Oc1cc2c(cc1O)CC(NCc1ccccc1)CC2 (centres unmarked) [compound 80]
